Measured values as given in patent publication US6451801B1, “Compounds and methods for treatment of asthma, allergy and inflammatory disorders” (UCB, S.A., priority 1999, dated 2002).
Read-outs that look alike come from different tables or passages of the source.

Key:
5-lipoxygenase = test: 5-Lipoxygenase inhibitory activity in vivo; settings: guinea pig, oral, 2 mg/kg
Method: Male, Hartley guinea pigs are obtained from Charles River Labs at a body weight of 350-400 grams. Compounds are prepared at a volume of [1-2 mg/ml] in 1% methocellulose for oral dosing. Animals are separated into groups of five (5). Each assay includes a control group dosed with vehicle. Each group of animals is dosed with either vehicle or compound by oral gavage. Animals are allowed to rest for one, three, or six hours after dosing. Control animals are allowed to rest for three hours. At the appropriate times, the animals are anesthetized with Urethane at 1.5 g/kg, ip. Blood is drawn into a heparinized syringe via cardiac puncture. Blood (0.5 ml) is aliquoted into separately-labeled 1.5 ml eppendorf tubes. Each sample is loaded with 5 μl of [15 mM] Arachidonic Acid, and placed in a 37° C. water bath for five minutes. After five minutes, the blood is stimulated with 5 μl of [5 mM] A23187 (Calcium Ionophore) and retained in the water bath for an additional 30 minutes. After the thirty minutes, the blood samples are removed from the water bath and centrifuged at 14,000 rpm for 2 minutes. Plasma is diluted to EIA buffer and an EIA is performed following manufacturer instructions (Cayman Chemical Co., Ann Arbor, Mich., USA). The results (Table 3) show the percent inhibition of 5-lipoxygenase by selected compounds at multiple time points post oral dosing. 50% inhibition or greater is considered significant.

[1] = tested on: histamine-induced bronchoconstriction; test: Antihistaminergic activity in vivo (histamine-induced bronchoconstriction); settings: Cavia porcellus, guinea pig, oral
Method: Male, Hartley guinea pigs are obtained from Charles River Labs at a body weight of 350 -400 grams. Inhibition of histamine activity is measured by the method of Konzett and Rössler (Naonyn-Schmiedebergs Arch. Exp. Path. Pharmakol. 195, 71-74 (1940). Anaethetized guinea pigs are subjected to artificial ventilation. The endotracheal pressure is recorded. Bronchoconstriction is induced by successive intravenous injections of histamine. The test compounds are administered orally in a 1% methocellulose suspension at set timepoints prior to the administration of histamine.
The results (Table 2) show the percent inhibition of histamine-induced bronchoconstriction by selected compounds at multiple time points post oral dosing. 50% inhibition or greater is considered significant.

human cloned H1 receptor = biological target: T1, human cloned H1 receptor (Homo sapiens, UniProt P35367); test: CHO-K1 H1R binding assay; settings: 3H-pyrilamine 2 nM, CHO-K1 membranes, 3 hours at 37° C.; read-out: CHOH1 K1
T1 construct: expressed in transfected cells; host or cells: CHO-K1
T1 sequence (P35367 whole entry): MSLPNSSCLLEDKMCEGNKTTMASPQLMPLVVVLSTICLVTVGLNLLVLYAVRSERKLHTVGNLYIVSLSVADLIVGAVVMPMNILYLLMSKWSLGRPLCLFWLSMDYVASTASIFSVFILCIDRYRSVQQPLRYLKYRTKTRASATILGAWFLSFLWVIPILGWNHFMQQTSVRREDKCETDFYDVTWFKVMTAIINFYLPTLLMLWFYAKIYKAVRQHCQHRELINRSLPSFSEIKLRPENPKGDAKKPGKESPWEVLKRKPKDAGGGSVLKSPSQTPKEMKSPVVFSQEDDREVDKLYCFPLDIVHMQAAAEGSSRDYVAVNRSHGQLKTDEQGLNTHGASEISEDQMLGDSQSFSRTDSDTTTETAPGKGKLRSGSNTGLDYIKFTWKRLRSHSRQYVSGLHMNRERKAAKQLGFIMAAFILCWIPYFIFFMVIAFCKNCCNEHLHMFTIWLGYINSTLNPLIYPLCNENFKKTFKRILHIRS
Method: CHO-K1 cells expressing the human cloned H1 receptor are grown to confluence in tissue culture dishes. Cells are harvested using D-PBS buffer (JRH Biosciences), kept at 4° C., centrifuging to pellet cells (4° C., 500 g, 10 min). The final cell pellet is homogenized and resuspended using Tris/sucrose buffer (20 mM Tris, 250 mM sucrose, pH 7.4 at 4° C.). Aliquots of the membrane preparation are stored at −70° C.
On the day of assay, the membrane preparation is thawed and centrifuged (TLA100.3 rotor, 4° C., 15 min, 23,000 rpm). The pellet is resuspended in Tris/sucrose buffer initially and then diluted further as necessary using assay buffer A (50 mM Na/KPO4, 2 mM MgCl2, 0.5% (w/v) BSA, pH 7.5).
For the binding assay, the membrane preparation, test compound and ^3H-pyrilamine (2 nM final) in buffer A with 1% (v/v) DMSO final are incubated in a 96-well polypropylene plate for 3 hours at 37° C. Non-specific binding is determined in the presence of 10 μM pyrilamine. A 96-well harvester (Packard) is used to harvest the 96-well plate onto a GF/B filter plate pre-treated with 0.1% (v/v) PEI. The plate is counted in a Packard Topcounter after adding Microscint 20 (Packard) scintillation fluid. The Ki for each compound at the histamine H1 receptor is then calculated from these counts.

[2] = biological target: T2, human 5-lipoxygenase enzyme (Homo sapiens, UniProt P09917); test: Inhibition of LTB4 production in human whole blood; format: cell-based
T2 construct: endogenous in cells; host or cells: human whole blood (leukocytes) stimulated with A23187
T2 sequence (P09917 1-674): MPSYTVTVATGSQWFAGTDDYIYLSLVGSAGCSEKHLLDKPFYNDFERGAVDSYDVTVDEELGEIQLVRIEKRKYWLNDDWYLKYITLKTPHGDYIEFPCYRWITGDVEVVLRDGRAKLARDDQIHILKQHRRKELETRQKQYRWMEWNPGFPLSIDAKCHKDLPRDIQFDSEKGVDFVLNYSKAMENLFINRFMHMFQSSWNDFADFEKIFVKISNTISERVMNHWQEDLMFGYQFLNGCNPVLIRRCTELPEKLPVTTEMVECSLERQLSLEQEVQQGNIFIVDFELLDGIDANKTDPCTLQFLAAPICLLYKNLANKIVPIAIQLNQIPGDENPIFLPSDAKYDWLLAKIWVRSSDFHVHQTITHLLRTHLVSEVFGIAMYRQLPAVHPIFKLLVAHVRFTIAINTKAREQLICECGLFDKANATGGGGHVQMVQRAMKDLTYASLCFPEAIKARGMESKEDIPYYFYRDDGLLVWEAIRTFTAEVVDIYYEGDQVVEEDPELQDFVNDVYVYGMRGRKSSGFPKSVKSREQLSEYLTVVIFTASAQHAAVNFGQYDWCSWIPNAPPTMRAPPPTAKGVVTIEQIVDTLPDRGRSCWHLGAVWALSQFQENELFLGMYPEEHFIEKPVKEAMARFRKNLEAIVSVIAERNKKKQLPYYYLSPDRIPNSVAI
Method: This assay examines the ability of a compound to inhibit leukotriene B4 production from human blood stimulated with calcium ionophore. As this production of leukotriene B4 is mediated via the activation of the 5-lipoxygenase enzyme, this assay is predictive of a compound's ability to inhibit the human 5-lipoxygenase enzyme.
The procedure for the assay is as follows. Blood is drawn from normal human volunteers into tubes containing heparin. 1 ml of the heparinized blood is pipetted into a 1.5 ml polypropylene tube. To this sample is added either different concentrations of the test compound (5 μl) dissolved in DMSO or 5 μl of DMSO as a vehicle control. These samples are incubated in a water bath, at 37° C. for 15 min. 5 μl of the calcium ionophore A23187 (at a final concentration of 50 μM) is then added to each sample, which is vortexed and placed back in the water bath for 30 min. The samples are then centrifuged at 2500 rpm for 10 min. at 4° C. 50 μl of the supernatant is transferred into pre-cooled Eppendorf tubes containing 950 μl of enzyme immunoassay (EIA) buffer. A commercially available EIA kit (Cayman Chemical Co., Ann Arbor, Mich., USA) is used to subsequently measure the LTB4 production in the samples. The LTB4 levels produced in the vehicle control sample is then compared to those in which the test compound has been added. From this a percent inhibition of LTB4 production by each concentration of test compound is calculated and the IC50 for inhibition of LTB4 production for each test compound is determined.

15-lipoxygenase = biological target: T3, 15-lipoxygenase (Oryctolagus cuniculus, UniProt P12530); test: Inhibition of 15-lipoxygenase (15-HETE production); format: biochemical; settings: 15-lipoxygenase from rabbit peritoneal polymorphonuclear leukocytes, 5 min at 37° C.
T3 construct: from tissue; host or cells: rabbit peritoneal polymorphonuclear leukocytes
T3 sequence (P12530 1-663): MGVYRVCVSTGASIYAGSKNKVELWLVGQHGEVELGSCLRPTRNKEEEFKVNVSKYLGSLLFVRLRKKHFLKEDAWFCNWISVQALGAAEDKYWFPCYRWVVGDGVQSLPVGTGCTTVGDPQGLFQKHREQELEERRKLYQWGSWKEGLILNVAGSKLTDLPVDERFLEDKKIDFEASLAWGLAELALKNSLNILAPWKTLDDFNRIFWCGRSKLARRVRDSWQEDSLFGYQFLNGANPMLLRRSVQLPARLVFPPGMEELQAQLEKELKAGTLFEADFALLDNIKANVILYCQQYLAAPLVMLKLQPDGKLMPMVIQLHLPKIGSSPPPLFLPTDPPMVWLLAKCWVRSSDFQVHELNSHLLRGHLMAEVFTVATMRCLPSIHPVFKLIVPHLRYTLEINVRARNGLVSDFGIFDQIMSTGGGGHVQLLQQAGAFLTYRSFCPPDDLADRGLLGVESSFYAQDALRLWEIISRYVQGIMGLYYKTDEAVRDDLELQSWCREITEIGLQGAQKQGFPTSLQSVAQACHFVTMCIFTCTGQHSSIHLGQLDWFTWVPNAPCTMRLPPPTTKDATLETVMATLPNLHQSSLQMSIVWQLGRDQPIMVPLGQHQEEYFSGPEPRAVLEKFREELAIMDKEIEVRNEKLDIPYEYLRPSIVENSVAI
Text: This assay examines the ability of a compound to inhibit production of 15-hydroxy-5, 8, 11, 13-eicosatetraenoic acid (15-HETE) via the action of 15-lipoxygenase on arachidonic acid. 15-lipoxygenase was purified from rabbit peritoneal polymorphonuclear leukocytes. The enzyme is responsible for the conversion of arachidonic acid (via oxygenation at carbon 15 of arachidonic acid) to 15-hydroperoxy-5, 8, 11, 13-eicosatetraenoic acid (15-HPETE), which then reduced to 15-hydroxy-5, 8, 11, 13-eicosatetraenoic acid (15-HETE).
The procedure for the assay is as follows. Arachidonic acid is co-incubated with […] for 5 min at 37° C. in the presence or absence of different concentrations of test compound (10^−8 to 10^−5 M). Production of 15-HETE in each sample is then measured by radioimmunoassay. The 15-HETE levels produced in the vehicle control sample are then compared to those in which the test compound has been added.

[3] = human whole blood, calcium ionophore A23187 50 μM, LTB4 by EIA, read-out: HWB IC50

Ki (human cloned H1 receptor)	IC50 [2, 3]	IC50 (15-lipoxygenase)	SMILES	% inhibition of 5-lipoxygenase (5-lipoxygenase; 1 hour)	% inhibition of 5-lipoxygenase (5-lipoxygenase; 6 hours)	inhibition in vivo at 2 mg/kg ([1]; 3 hrs)	inhibition in vivo at 2 mg/kg ([1]; 6 hrs)	inhibition in vivo at 5 mg/kg ([1]; 5 mg/kg, 3 hrs)	% inhibition of 5-lipoxygenase (5-lipoxygenase; 3 hours)	IC50 [2]
58 nM	251 nM		NC(=O)N(O)CCC#Cc1ccc(OCCN2CCN(C(c3ccc(F)cc3)c3ccc(F)cc3)CC2)cc1[N+](=O)[O-] [Compound 87, N-{4-[4-(2-{4-[bis(4-fluorophenyl)methyl]-1-piperazinyl}ethoxy)-2-nitrophenyl]-3-butynyl)-N-hydroxyurea]	70%	94%	66%	73%			
24 nM	1520 nM	1300 nM	NC(=O)N(O)Cc1ccc(OCCN2CCN([C@H](c3ccccc3)c3ccc(Cl)cc3)CC2)cc1 [Compound 1, N-{[4-(2-{4-[(1R) (4-chlorophenyl)phenylmethyl]piperazinyl}ethoxy)phenyl]methyl} amino-N-hydroxyamide]	62%				56%		
	263 nM	170 nM	NC(=O)N(O)CCC#Cc1ccc(OCCN2CCC(=C3c4ccc(Cl)cc4CCc4cccnc43)CC2)cc1 [Compound 32]	88%		65%				
10 nM	287 nM		NC(=O)N(O)CCC#Cc1cccc(OCCN2CCN([C@H](c3ccccc3)c3ccc(Cl)cc3)CC2)c1 [Compound 23, N-{4-[3-(2-{4-[(1R)(4-chlorophenyl)phenylmethyl]piperazinyl}ethoxy)phenyl]but-3-ynyl}amino-N-hydroxyamide]	80%		80%	92%			
15 nM	254 nM		NC(=O)N(O)CCCCc1ccc(OCCN2CCN([C@H](c3ccccc3)c3ccc(Cl)cc3)CC2)cc1 [Compound 17, N-{4-[4-(2-{4-[(1R) (4-chlorophenyl)phenyl-methyl]piperazinyl}ethoxy)phenyl]butyl} amino-N-hydroxyamide]		94%	66%	73%		70%	
135 nM	85 nM	46 nM	NC(=O)c1cc(C#CCCN(O)C(N)=O)ccc1OCCN1CCN([C@H](c2ccccc2)c2ccc(Cl)cc2)CC1 [Compound 35, 2-(2-{4-[(1R) (4-chlorophenyl)phenyl-methyl]piperazinyl}ethoxy)-5-[4-(amino-hydroxycarbonylamino)but-1-ynyl]benzamide]	87%		72%	88%		97%	
	105 nM	61 nM	NC(=O)N(O)CCC#Cc1ccc(OCCCN2CCN([C@H](c3ccccc3)c3ccc(Cl)cc3)CC2)cc1 [Compound 52, N-{4-[4-(3-{4-[(1R)(4-chlorophenyl)phenyl-methyl]piperazinyt}propoxy)phenyl]but-3-ynyl}amino-N-hydroxyamide]			69%			61%	

SMILES	Ki (human cloned H1 receptor)	IC50 [2, 3]	IC50 (15-lipoxygenase)	% inhibition of 5-lipoxygenase (5-lipoxygenase; 1 hour)	% inhibition of 5-lipoxygenase (5-lipoxygenase; 6 hours)	inhibition in vivo at 2 mg/kg ([1]; 3 hrs)	inhibition in vivo at 2 mg/kg ([1]; 6 hrs)	inhibition in vivo at 5 mg/kg ([1]; 5 mg/kg, 3 hrs)	% inhibition of 5-lipoxygenase (5-lipoxygenase; 3 hours)	IC50 [2]
NC(=O)N(O)CCC#Cc1ccc(CN2CCN(C(c3ccc(F)cc3)c3ccc(F)cc3)CC2)o1 [Compound 34, amino-N-{4-[5-({4-[bis (4-fluorophenyl)methyl]piperazinyl}methyl) (2-furyl)]but-3-ynyl}-N-hydroxyamide]	550 nM					81%	89%		38%	142 nM
NC(=O)N(O)CCC#Cc1ccc(OCCCCN2CCN(C(c3ccc(F)cc3)c3ccc(F)cc3)CC2)cc1 [Compound 80, amino-N-{4-[4-(4-{4-[bis(4-fluorophenyl)methyl]piperazinyl}butoxy)phenyl]but-3-ynyl}-N-hydroxyamide]		78 nM	110 nM		88%	98%			73%	
